Laboratory results published in PMC11083769, “Characterization and pharmacokinetics of cinnamon and star anise compound essential oil pellets prepared via centrifugal granulation technology” (BMC Veterinary Research, 2024).
Values after ≈ are worked out from the molar mass of the structure shown. Marks after values point to notes of the source that are not given here.

How the values were obtained:
[1] = Pharmacokinetics of compound essential oil pellets in pig model; assay type: in vivo; details: single dose, n = 6
Text: Six healthy Landrace × Large White hybrid pigs were randomly divided into three groups for pharmacokinetic experiments and were purchased from JuCong Agriculture, Nanning, Guangxi. During the adaptation period, the temperature of the breeding environment was 18–25℃, the relative humidity was 50–65%, and commercial feed and water free of antibiotics and target drugs were freely available to the pigs housed individually in six pig pens. After the experiment, the pigs were released.
After one week in the experimental setting, the pigs were labelled with numbers 1–6, randomly divided into 3 groups, and weighed before the experiment. […] Compound essential oil pellets were orally administered at three different doses of 50, 100 and 200 mg/kg. Three cycles of crossover trials were performed with 6 pigs, with each cycle separated by 7 days. 5 mL of blood was collected from the anterior vena cava at different time points after administration, centrifuged at 3000 r/min for 10 min, after which the plasma was separated. The drug concentration in the plasma was detected by GC‒MS/MS after pretreatment.
The average drug-time curve of each group was drawn. WinNonlin version 5.2.1 was used to calculate the pharmacokinetic parameters.
The compound essential oil pellet concentration was measured using GC‒MS/MS. The chromatographic conditions were as follows. A PEG-20 M column (30 m × 0.32 mm, 0.25 μm) was used. The temperature was increased from 90 ℃ to 160 ℃ at a heating rate of 10 ℃/min, held for 5 min, further increased from 160 ℃ to 280 ℃ at a heating rate of 20 ℃/min and held for 2 min.

[2] = system: Staphylococcus aureus Newman strain; parameters: method as in PMID 32185411; details: cited from earlier work
[3] = oral compound essential oil pellets 50 mg/kg
[4] = oral compound essential oil pellets 100 mg/kg
[5] = oral compound essential oil pellets 200 mg/kg

## O=C/C=C/c1ccccc1 [cinnamaldehyde, Cinnamaldehyde]
[1]; [3]
  AUC0−∞ of plasma cinnamaldehyde: 1433.11 ± 21.30^a h·µg/L
  CL of plasma cinnamaldehyde: 18.69 ± 1.81^ac L/h/kg
  Cmax of plasma cinnamaldehyde: 58.81 ± 6.16^a µg/L
  MRT0−∞ of plasma cinnamaldehyde: 20.96 ± 0.21^a h
  T1/2 of plasma cinnamaldehyde: 14.52 ± 0.14^a h
  Tmax of plasma cinnamaldehyde: 2.00 h
  Vz of plasma cinnamaldehyde: 1205.24 ± 149.37^ab L/kg
[1]; [4]
  AUC0−∞ of plasma cinnamaldehyde: 467.05 ± 141.28^d h·µg/L
  CL of plasma cinnamaldehyde: 142.48 ± 40.58^d L/h/kg
  Cmax of plasma cinnamaldehyde: 37.57 ± 5.56^d µg/L
  MRT0−∞ of plasma cinnamaldehyde: 17.62 ± 1.84^d h
  T1/2 of plasma cinnamaldehyde: 12.21 ± 1.27^d h
  Tmax of plasma cinnamaldehyde: 2.00 h
  Vz of plasma cinnamaldehyde: 7671.46 ± 1809.86^d L/kg
[1]; [5]
  AUC0−∞ of plasma cinnamaldehyde: 1653.25 ± 295.40 µg·h/L
  CL of plasma cinnamaldehyde: 56.85 ± 15.32 L/h/kg
  Cmax of plasma cinnamaldehyde: 64.18 ± 2.33 µg/L
  MRT0−∞ of plasma cinnamaldehyde: 20.68 ± 0.61 h
  T1/2 of plasma cinnamaldehyde: 14.33 ± 0.42 h
  Tmax of plasma cinnamaldehyde: 2.00 h
  Vz of plasma cinnamaldehyde: 4593.67 ± 625.29 L/kg

## C/C=C/c1ccc(OC)cc1 [trans-anethole, Trans-anethole]
[2]
  MIC: 49.4 mg/mL (≈ 333 mM)
